The target of the test is T1, Fatty-acid amide hydrolase 1 (Mus musculus, UniProt O08914).
T1 sequence (O08914 whole entry): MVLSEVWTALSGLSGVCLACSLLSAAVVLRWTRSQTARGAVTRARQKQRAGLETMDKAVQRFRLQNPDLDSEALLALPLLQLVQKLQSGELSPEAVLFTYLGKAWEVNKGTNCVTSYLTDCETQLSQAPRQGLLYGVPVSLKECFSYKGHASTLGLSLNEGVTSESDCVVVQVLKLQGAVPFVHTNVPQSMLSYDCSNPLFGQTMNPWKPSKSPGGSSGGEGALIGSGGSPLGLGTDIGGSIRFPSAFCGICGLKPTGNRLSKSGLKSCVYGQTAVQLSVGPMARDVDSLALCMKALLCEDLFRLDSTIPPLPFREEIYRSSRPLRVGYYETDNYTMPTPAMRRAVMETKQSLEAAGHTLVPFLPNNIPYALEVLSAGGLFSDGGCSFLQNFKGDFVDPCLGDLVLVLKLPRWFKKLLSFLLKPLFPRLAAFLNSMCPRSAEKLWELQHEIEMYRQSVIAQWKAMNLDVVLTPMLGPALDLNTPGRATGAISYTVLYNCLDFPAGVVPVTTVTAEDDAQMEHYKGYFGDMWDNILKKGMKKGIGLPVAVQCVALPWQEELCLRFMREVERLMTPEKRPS
Nature of the test: In Vitro Competitive Activity-Based Protein Profiling: Proteomes (mouse brain membrane fraction or cell lysates) (50 μL, 1.0 mg/mL total protein concentration) were preincubated with varying concentrations of inhibitors at 37° C. After 30 min, FP¿Rh (1.0 μL, 50 μM in DMSO) was added and the mixture was incubated for another 30 min at 37° C. Reactions were quenched with SDS loading buffer (50 μL-4×) and run on SDS-PAGE. Following gel imaging, serine hydrolase activity was determined by measuring fluorescent intensity of gel bands corresponding to MAGL, ABHD6 and FAAH using ImageJ 1.43u software.

What is called IC50 is the point on the concentration scale where inhibition reaches its midpoint.

`O=C(OC(C(F)(F)F)C(F)(F)F)N1CCC2(CCCN2Cc2ccc(OCCN3CCOCC3)cc2)CC1`: the IC50 is above 1000 nM.

For the origin of these results see ChEMBL document CHEMBL5725658, “Spirocycle compounds and methods of making and using same” (2018).
